From patent US9834558B2, “Substituted bridged urea analogs as sirtuin modulators” (GLAXOSMITHKLINE LLC, priority 2013, dated 2017)
Like-named read-outs stand apart in the source and are kept apart here.

Target: T1, SIRT1 (Homo sapiens, UniProt Q96EB6)
T1 sequence (Q96EB6 1-747): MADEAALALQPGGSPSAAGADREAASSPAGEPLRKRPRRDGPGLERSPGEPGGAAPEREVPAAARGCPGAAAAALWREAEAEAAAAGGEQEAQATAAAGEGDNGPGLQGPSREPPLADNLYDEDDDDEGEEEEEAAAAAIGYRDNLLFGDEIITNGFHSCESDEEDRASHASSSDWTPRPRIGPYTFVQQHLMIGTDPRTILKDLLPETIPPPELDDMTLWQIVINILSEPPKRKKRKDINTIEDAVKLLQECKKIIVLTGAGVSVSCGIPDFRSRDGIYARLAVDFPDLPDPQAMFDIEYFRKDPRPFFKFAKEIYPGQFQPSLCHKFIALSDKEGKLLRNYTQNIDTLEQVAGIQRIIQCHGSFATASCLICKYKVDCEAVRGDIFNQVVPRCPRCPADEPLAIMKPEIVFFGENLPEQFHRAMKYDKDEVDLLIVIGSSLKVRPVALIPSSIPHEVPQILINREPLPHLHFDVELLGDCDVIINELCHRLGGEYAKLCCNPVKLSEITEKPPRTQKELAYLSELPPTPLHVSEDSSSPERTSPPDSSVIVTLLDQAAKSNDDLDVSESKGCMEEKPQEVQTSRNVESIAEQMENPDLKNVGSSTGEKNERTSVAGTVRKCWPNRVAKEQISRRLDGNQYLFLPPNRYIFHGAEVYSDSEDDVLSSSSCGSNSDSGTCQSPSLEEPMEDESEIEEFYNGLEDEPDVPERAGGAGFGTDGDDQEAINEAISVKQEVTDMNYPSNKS
Assay: Trp mass spectrometry assay of SIRT1 activation
Format: biochemical
Settings: for TRP Activity (EC1.5): EC1.5 = concentration that results in 150% activation of SIRT1
Summary of the method: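 N-terminal His-tagged human SIRT1 (10 nM, E. coli BL21(DE3)) with 0.5 μM Ac-RHKK(Ac)W-NH2 peptide and 120 μM βNAD+, 25 min at 25 °C in HEPES pH 7.5, formic acid stop. OAADPR or deacetylated peptide quantified by mass spectrometry; EC1.5 (50% activity increase over control) and Percent Maximum Activation reported.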

[1] = Trp mass spectrometry assay, concentration of test compound giving 150% activation of SIRT1
[2] = Trp mass spectrometry assay, EC1.5 = concentration of test compound that results in 150% activation of SIRT1
[3] = Trp mass spectrometry assay, percent maximum fold activation of SIRT1, read-out: Tryp % Fold Act
[4] = Trp peptide assay, maximum activity relative to control (100%), read-out: TRP MAX RESP (percent maximum fold activation)
[5] = concentration giving 150% activation of SIRT1, Trp peptide substrate

Structure (SMILES)	Tryp AVG EC1.5 (μM) [2]	TRP Activity (EC1.5) (Trp peptide assay)	other results
N#Cc1cccc(-c2ccc3c(n2)N(C(=O)Nc2cccnn2)[C@H]2CCCN3C2)c1 [Example 381]	–	–	Tryp AVG EC1.5 (μM) [1]: B (B (EC1.5 1-25 μM))
O=C(Nc1cncc(F)c1)N1c2nc(-c3ccnc(N4CCC(C(F)(F)F)C4)c3)ccc2N2CC[C@H]1C2 (stereo partly drawn) [Example 410]	–	–	Tryp AVG EC1.5 (μM) [1]: A (A (EC1.5<1 μM))
O=C(O)c1cc(NC(=S)NCc2ccc(NC(=O)N3c4nc(-c5cccc(C(F)(F)F)c5)ccc4N4CC[C@H]3C4)cc2)ccc1-c1c2ccc(=O)cc-2oc2cc(O)ccc12 [Example 530]	A (A (EC1.5<1 μM))	–	Emax [3]: > 150%
Cc1ccc(-c2ccc3c(n2)N(C(=O)Nc2nc4ccc(F)cc4s2)[C@H]2CCN3C2)cn1 [(9S)-N-(6-fluoro-1,3-benzothiazol-2-yl)-5-(6-methylpyridin-3-yl)-1,6,8-triazatricyclo[7.2.1.0 {2,7}]dodeca-2,4,6-triene-8-carboxamide]	–	B (B (EC1.5 1-25 μM))	Emax (read-out: TRP MAX RESP (percent maximum fold activation)): > 150%
CN(C)Cc1cccc(-c2ccc3c(n2)N(C(=O)Nc2ccccn2)[C@H]2CCN3C2)c1 [Example 343]	–	–	Tryp AVG EC1.5 (μM) [1]: B (B (EC1.5 1-25 μM))
O=C(Nc1ncc(-c2ccccc2)s1)N1c2nc(-c3cccc(C(F)(F)F)c3)ccc2N2CC[C@H]1C2 [Example 734]	–	–	Tryp AVG EC1.5 (μM) [5]: B (B (EC1.5 1-25 μM))
Cc1cc(-c2ccc3c(n2)N(C(=O)Nc2cc(-c4cnco4)ccn2)[C@H]2CCN3C2)ccn1 [Example 746]	–	–	Tryp AVG EC1.5 (μM) [5]: A (A (EC1.5<1 μM))
O=C(Nc1ccccn1)N1c2nc(-c3ccc4nonc4c3)ccc2N2CC[C@H]1C2 [Example 372]	–	–	Tryp AVG EC1.5 (μM) [1]: B (B (EC1.5 1-25 μM))
Cc1ccc(-c2ccc3c(n2)N(C(=O)NCC2CC2)[C@H]2CCN3C2)cn1 [(9S)-N-(cyclopropylmethyl)-5-(6-methylpyridin-3-yl)-1,6,8-triazatricyclo[7.2.1.0^{2,7}]dodeca-2,4,6-triene-8-carboxamide]	–	B (B (EC1.5 1-25 μM))	Emax [4]: > 150%
O=C(Nc1ccc(F)cn1)N1c2nc(-c3cncc(F)c3)ccc2N2CCC[C@H]1C2 [Example 431]	A (A (EC1.5<1 μM))	–	–
O=C(Nc1ccc2[nH]ncc2c1)N1c2nc(-c3cccc(C(F)(F)F)c3)ccc2N2CC[C@H]1C2 [Example 666]	–	–	Tryp AVG EC1.5 (μM) [5]: A (A (EC1.5<1 μM))
CS(=O)(=O)c1cncc(-c2ccc3c(n2)N(C(=O)Nc2cnccn2)[C@H]2CCCN3C2)c1 [Example 378]	–	–	Tryp AVG EC1.5 (μM) [1]: A (A (EC1.5<1 μM))
COc1cc(NC(=O)N2c3nc(-c4ccc(C)nc4)ccc3N3CCC[C@H]2C3)ncn1 [Example 478]	B (B (EC1.5 1-25 μM))	–	–
Cc1cc(-c2ccc3c(n2)N(C(=O)NC2CCCC2)[C@H]2CCN3C2)ccn1 [(9S)-N-cyclopentyl-5-(2-methylpyridin-4-yl)-1,6,8-triazatricyclo[7.2.1.0 {2,7}]dodeca-2,4,6-triene-8-carboxamide]	–	B (B (EC1.5 1-25 μM))	Emax [4]: > 150%
O=C(Nc1cncc(F)c1)N1c2nc(-c3cccc(Cl)c3)ccc2N2CCC1CC2 [Example 521]	B (B (EC1.5 1-25 μM))	–	–
O=C(Nc1cnccn1)N1c2nc(-c3ccnc(C(F)(F)F)n3)ccc2N2CC[C@H]1C2 [(9S)-N-(pyrazin-2-yl)-5-[2-(trifluoromethyl)pyrimidin-4-yl]-1,6,8-triazatricyclo[7.2.1.0 {2,7}]dodeca-2(7),3,5-triene-8-carboxamide]	–	B (B (EC1.5 1-25 μM))	Emax [4]: > 150%
COc1cncc(-c2ccc3c(n2)N(C(=O)Nc2ccccn2)[C@H]2CCN3C2)c1 [Example 346]	–	–	Tryp AVG EC1.5 (μM) [1]: B (B (EC1.5 1-25 μM))
O=C(Nc1ccccn1)N1c2nc(-c3cncc(Cl)c3)ccc2N2CCC1CC2 [Example 551]	B (B (EC1.5 1-25 μM))	–	–
O=C(NCCCCc1ccccc1)N1c2nc(-c3cccc(C(F)(F)F)c3)ccc2N2CC[C@H]1C2 [Example 600]	B (B (EC1.5 1-25 μM))	–	–
CC(=O)N1CCC(c2cccc(NC(=O)N3c4nc(-c5cccc(C(F)(F)F)c5)ccc4N4CC[C@H]3C4)c2)C1 (stereo partly drawn) [Example 635]	–	–	Tryp AVG EC1.5 (μM) [5]: A (A (EC1.5<1 μM))
Cc1cc(-c2ccc3c(n2)N(C(=O)Nc2cnn(C)c2)[C@H]2CCN3C2)ccn1 [Example 482]	B (B (EC1.5 1-25 μM))	–	–
Cc1ccncc1-c1ccc2c(n1)N(C(=O)Nc1ccncn1)[C@H]1CCCN2C1 [Example 518]	C (C (EC1.5>25 μM))	–	–
C[C@@H]1CN(c2ccc3c(n2)N(C(=O)Nc2cnccn2)[C@H]2CCN3C2)CCO1 [(9S)-5-[(2R)-2-methylmorpholin-4-yl]-N-(pyrazin-2-yl)-1,6,8-triazatricyclo[7.2.1.0 {2,7}]dodeca-2,4,6-triene-8-carboxamide]	–	B (B (EC1.5 1-25 μM))	Emax [4]: > 150%
O=C(Nc1cccc(-c2cnco2)c1)N1c2nc(-c3cccc(Cl)c3)ccc2N2CCC1CC2 [Example 497]	A (A (EC1.5<1 μM))	–	–

The next lines start with results.

Tryp AVG EC1.5 (μM) [2]	TRP Activity (EC1.5) (Trp peptide assay)	Structure (SMILES)	other results
–	C (C (EC1.5>25 μM))	Cc1cc(-c2ccc3c(n2)N(C(=O)N2CCOCC2)[C@H]2CCN3C2)ccn1 [(9S)-5-(2-methylpyridin-4-yl)-8-[(morpholin-4-yl)carbonyl]-1,6,8-triazatricyclo[7.2.1.0 {2,7}]dodeca-2,4,6-triene]	Emax [4]: < 150%
A (A (EC1.5<1 μM))	–	O=C(Nc1cc(F)ccn1)N1c2nc(-c3cccc(C(F)(F)F)c3)ccc2N2CCC1CC2 [Example 492]	Emax [3]: > 150%
–	A (A (EC1.5<1 μM))	Cc1cc(-c2ccc3c(n2)N(C(=O)Nc2ccc4c(c2)OCCCO4)[C@H]2CCN3C2)ccn1 [(9S)-N-(3,4-dihydro-2H-1,5-benzodioxepin-7-yl)-5-(2-methylpyridin-4-yl)-1,6,8-triazatricyclo[7.2.1.0 {2,7}]dodeca-2,4,6-triene-8-carboxamide]	Emax [4]: > 150%
–	A (A (EC1.5<1 μM))	O=C(Nc1cnccn1)N1c2nc(N3CCC[C@H](C(F)(F)F)C3)ccc2N2CCC[C@H]1C2 [(9S)-N-(pyrazin-2-yl)-5-[(3S)-3-(trifluoromethyl)piperidin-1-yl]-1,6,8-triazatricyclo[7.3.1.0 {2,7}]trideca-2(7),3,5-triene-8-carboxamide]	Emax [4]: > 150%
B (B (EC1.5 1-25 μM))	–	COc1cc(NC(=O)N2c3nc(-c4cccc(Cl)c4)ccc3N3CCC2CC3)ncn1 [Example 522]	–
B (B (EC1.5 1-25 μM))	–	CC(=O)O[C@@H]1CN2C[C@H]1N(C(=O)Nc1ccccn1)c1nc(-c3cccc(C(F)(F)F)c3)ccc12 [Example 602]	–
–	B (B (EC1.5 1-25 μM))	Cc1cc(-c2ccc3c(n2)N(C(=O)Nc2ccc4[nH]cnc4n2)[C@H]2CCN3C2)ccn1 [(9S)-N-{1H-imidazo[4,5-b]pyridin-5-yl}-5-(2-methylpyridin-4-yl)-1,6,8-triazatricyclo[7.2.1.0 {2,7}]dodeca-2(7),3,5-triene-8-carboxamide]	Emax [4]: > 150%
B (B (EC1.5 1-25 μM))	–	O=C(Nc1cncc(F)c1)N1c2nc(-c3cncc(F)c3)ccc2N2CCC1CC2 [Example 571]	–
B (B (EC1.5 1-25 μM))	–	O=C(Nc1cccnc1)N1c2nc(-c3cnn(-c4ccccc4)c3)ccc2N2CC[C@H]1C2 [Example 549]	–
–	A (A (EC1.5<1 μM))	O=C(Nc1cc(OC[C@H](O)CO)ccn1)N1c2nc(-c3cccc(C(F)(F)F)c3)ccc2N2CC[C@H]1C2 [(9S)-N-{4-[(2R)-2,3-dihydroxypropoxy]pyridin-2-yl}-5-[3-(trifluoromethyl)phenyl]-1,6,8-triazatricyclo[7.2.1.0 {2,7}]dodeca-2(7),3,5-triene-8-carboxamide]	Emax [4]: > 150%
B (B (EC1.5 1-25 μM))	–	O=C(Nc1cccnc1)N1c2nc(-c3cnn(C4CCCC4)c3)ccc2N2CC[C@H]1C2 [Example 587]	–
–	A (A (EC1.5<1 μM))	Cc1cc(-c2ccc3c(n2)N(C(=O)Nc2cnccn2)[C@H]2CCN3C2)cnc1C [(9S)-5-(5,6-dimethylpyridin-3-yl)-N-(pyrazin-2-yl)-1,6,8-triazatricyclo[7.2.1.0 {2,7}]dodeca-2(7),3,5-triene-8-carboxamide]	Emax [4]: > 150%
–	B (B (EC1.5 1-25 μM))	Cc1cc(-c2ccc3c(n2)N(C(=O)Nc2cnc4c(c2)OCCO4)[C@H]2CCN3C2)ccn1 [(9S)-N-{2H,3H-[1,4]dioxino[2,3-b]pyridin-7-yl}-5-(2-methylpyridin-4-yl)-1,6,8-triazatricyclo[7.2.1.0 {2,7}]dodeca-2,4,6-triene-8-carboxamide]	Emax [4]: > 150%
